Laboratory results reported in PubChem BioAssay (NCI).
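Results reflect a 48-hour exposure of cells in 96-well plates to compound at five concentrations. The concentration for full growth arrest is given as TGI.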

Columns and labels:
Test in all cases: DTP human tumour cell line panel, 48 h
K-562 leukemia = test system: K-562 leukemia
PC-3 prostate = test system: PC-3 prostate
MCF7 breast = test system: MCF7 breast
NCI-H522 lung = test system: NCI-H522 lung
LOX IMVI melanoma = test system: LOX IMVI melanoma
HCT-15 colon = test system: HCT-15 colon
TK-10 renal = test system: TK-10 renal
DU-145 prostate = test system: DU-145 prostate
BT-549 breast = test system: BT-549 breast
UO-31 renal = test system: UO-31 renal
SW-620 colon = test system: SW-620 colon
NCI-H226 lung = test system: NCI-H226 lung
OVCAR-8 ovarian = test system: OVCAR-8 ovarian
U251 CNS = test system: U251 CNS
MDA-MB-435 = test system: MDA-MB-435
M14 melanoma = test system: M14 melanoma
UACC-257 melanoma = test system: UACC-257 melanoma
OVCAR-4 ovarian = test system: OVCAR-4 ovarian
MOLT-4 leukemia = test system: MOLT-4 leukemia
OVCAR-3 ovarian = test system: OVCAR-3 ovarian
SK-OV-3 ovarian = test system: SK-OV-3 ovarian
NCI-H23 lung = test system: NCI-H23 lung
KM12 colon = test system: KM12 colon
SK-MEL-2 melanoma = test system: SK-MEL-2 melanoma
RXF 393 renal = test system: RXF 393 renal
IGROV1 ovarian = test system: IGROV1 ovarian
SNB-19 CNS = test system: SNB-19 CNS
ACHN renal = test system: ACHN renal
HCT-116 colon = test system: HCT-116 colon
SK-MEL-28 melanoma = test system: SK-MEL-28 melanoma
UACC-62 melanoma = test system: UACC-62 melanoma
RPMI-8226 leukemia = test system: RPMI-8226 leukemia
A498 renal = test system: A498 renal
HOP-92 NSCLC = test system: HOP-92 NSCLC
SNB-75 CNS = test system: SNB-75 CNS
EKVX NSCLC = test system: EKVX NSCLC
T-47D breast = test system: T-47D breast
MDA-N = test system: MDA-N
786-0 renal = test system: 786-0 renal
COLO 205 colon = test system: COLO 205 colon
A549 NSCLC = test system: A549 NSCLC
SF-539 CNS = test system: SF-539 CNS
CCRF-CEM leukemia = test system: CCRF-CEM leukemia
MDA-MB-231 breast = test system: MDA-MB-231 breast
SF-268 CNS = test system: SF-268 CNS
SK-MEL-5 melanoma = test system: SK-MEL-5 melanoma
OVCAR-5 ovarian = test system: OVCAR-5 ovarian
CAKI-1 renal = test system: CAKI-1 renal
MALME-3M melanoma = test system: MALME-3M melanoma
SN12C renal = test system: SN12C renal
HL-60(TB) leukemia = test system: HL-60(TB) leukemia
NCI/ADR-RES ovarian = test system: NCI/ADR-RES ovarian
SF-295 CNS = test system: SF-295 CNS
NCI-H460 lung = test system: NCI-H460 lung
HOP-62 NSCLC = test system: HOP-62 NSCLC
HS 578T breast = test system: HS 578T breast
HT29 colon = test system: HT29 colon
HCC-2998 colon = test system: HCC-2998 colon

`O=C1NC(N/N=C/c2cccs2)=N/C1=C\c1ccco1` gave a TGI (K-562 leukemia) of over 100 µM, a TGI (PC-3 prostate) of over 100 µM and a TGI (MCF7 breast) of over 100 µM. The TGI (NCI-H522 lung) was 39.9 µM, the TGI (LOX IMVI melanoma) was over 100 µM and the TGI (HCT-15 colon) was over 100 µM. It also gave a TGI (TK-10 renal) of over 100 µM, a TGI (DU-145 prostate) of over 100 µM and a TGI (BT-549 breast) of over 100 µM. The TGI (UO-31 renal) was over 100 µM, the TGI (SW-620 colon) was over 100 µM and the TGI (NCI-H226 lung) was over 100 µM. For the same molecule, the TGI (OVCAR-8 ovarian) was over 100 µM, the TGI (U251 CNS) was over 100 µM and the TGI (MDA-MB-435) was 90.4 µM. The TGI (M14 melanoma) was over 100 µM, the TGI (UACC-257 melanoma) was over 100 µM and the TGI (OVCAR-4 ovarian) was over 100 µM. It also gave a TGI (MOLT-4 leukemia) of over 100 µM, a TGI (OVCAR-3 ovarian) of 74.4 µM and a TGI (SK-OV-3 ovarian) of 70.6 µM. For the same molecule, the TGI (NCI-H23 lung) was over 100 µM, the TGI (KM12 colon) was over 100 µM and the TGI (SK-MEL-2 melanoma) was 62.4 µM. It also gave a TGI (RXF 393 renal) of over 100 µM, a TGI (IGROV1 ovarian) of over 100 µM and a TGI (SNB-19 CNS) of over 100 µM. It also gave a TGI (ACHN renal) of over 100 µM, a TGI (HCT-116 colon) of over 100 µM and a TGI (SK-MEL-28 melanoma) of over 100 µM. For the same molecule, the TGI (UACC-62 melanoma) was over 100 µM, the TGI (RPMI-8226 leukemia) was 94.8 µM and the TGI (A498 renal) was 82.5 µM. The TGI (HOP-92 NSCLC) was over 100 µM, the TGI (SNB-75 CNS) was over 100 µM and the TGI (EKVX NSCLC) was over 100 µM. For the same molecule, the TGI (T-47D breast) was over 100 µM, the TGI (MDA-N) was 13.6 µM and the TGI (786-0 renal) was over 100 µM. The TGI (COLO 205 colon) was over 100 µM, the TGI (A549 NSCLC) was over 100 µM and the TGI (SF-539 CNS) was over 100 µM. It also gave a TGI (CCRF-CEM leukemia) of over 100 µM, a TGI (MDA-MB-231 breast) of over 100 µM and a TGI (SF-268 CNS) of over 100 µM. It also gave a TGI (SK-MEL-5 melanoma) of over 100 µM, a TGI (OVCAR-5 ovarian) of over 100 µM and a TGI (CAKI-1 renal) of over 100 µM. It also gave a TGI (MALME-3M melanoma) of over 100 µM, a TGI (SN12C renal) of over 100 µM and a TGI (HL-60(TB) leukemia) of over 100 µM. It also gave a TGI (NCI/ADR-RES ovarian) of over 100 µM, a TGI (SF-295 CNS) of over 100 µM and a TGI (NCI-H460 lung) of over 100 µM. It also gave a TGI (HOP-62 NSCLC) of over 100 µM, a TGI (HS 578T breast) of 76.7 µM and a TGI (HT29 colon) of over 100 µM.
For `CCOC(=O)CO/N=C\C1=CC(=O)C2CC1C2(C)C` (stereo unspecified), the TGI (K-562 leukemia) was over 100 µM, the TGI (PC-3 prostate) was over 100 µM and the TGI (MCF7 breast) was over 100 µM. The TGI (LOX IMVI melanoma) was over 100 µM, the TGI (HCT-15 colon) was over 100 µM and the TGI (TK-10 renal) was over 100 µM. The TGI (DU-145 prostate) was over 100 µM, the TGI (BT-549 breast) was over 100 µM and the TGI (UO-31 renal) was over 100 µM. For the same molecule, the TGI (SW-620 colon) was over 100 µM, the TGI (NCI-H226 lung) was over 100 µM and the TGI (OVCAR-8 ovarian) was over 100 µM. It also gave a TGI (U251 CNS) of over 100 µM, a TGI (MDA-MB-435) of over 100 µM and a TGI (M14 melanoma) of over 100 µM. The TGI (UACC-257 melanoma) was over 100 µM, the TGI (MOLT-4 leukemia) was over 100 µM and the TGI (OVCAR-3 ovarian) was over 100 µM. The TGI (NCI-H23 lung) was over 100 µM, the TGI (KM12 colon) was over 100 µM and the TGI (SK-MEL-2 melanoma) was over 100 µM. It also gave a TGI (RXF 393 renal) of over 100 µM, a TGI (IGROV1 ovarian) of over 100 µM and a TGI (SNB-19 CNS) of over 100 µM. It also gave a TGI (ACHN renal) of over 100 µM, a TGI (HCT-116 colon) of over 100 µM and a TGI (SK-MEL-28 melanoma) of over 100 µM. The TGI (UACC-62 melanoma) was over 100 µM, the TGI (RPMI-8226 leukemia) was over 100 µM and the TGI (A498 renal) was over 100 µM. For the same molecule, the TGI (SNB-75 CNS) was over 100 µM, the TGI (EKVX NSCLC) was over 100 µM and the TGI (T-47D breast) was over 100 µM. It also gave a TGI (MDA-N) of over 100 µM, a TGI (786-0 renal) of over 100 µM and a TGI (COLO 205 colon) of over 100 µM. It also gave a TGI (SF-539 CNS) of over 100 µM, a TGI (CCRF-CEM leukemia) of over 100 µM and a TGI (MDA-MB-231 breast) of over 100 µM. For the same molecule, the TGI (SF-268 CNS) was over 100 µM, the TGI (SK-MEL-5 melanoma) was over 100 µM and the TGI (OVCAR-5 ovarian) was over 100 µM. For the same molecule, the TGI (CAKI-1 renal) was over 100 µM, the TGI (MALME-3M melanoma) was over 100 µM and the TGI (SN12C renal) was over 100 µM. For the same molecule, the TGI (HL-60(TB) leukemia) was over 100 µM, the TGI (NCI/ADR-RES ovarian) was over 100 µM and the TGI (SF-295 CNS) was over 100 µM. For the same molecule, the TGI (HS 578T breast) was over 100 µM and the TGI (HT29 colon) was over 100 µM.
`CC(=O)OCCn1c(Cc2ccc(C)cc2)nn(C(C)=O)c1=O` gave a TGI (K-562 leukemia) of over 100 µM, a TGI (PC-3 prostate) of over 100 µM and a TGI (MCF7 breast) of over 100 µM. For the same molecule, the TGI (NCI-H522 lung) was over 100 µM, the TGI (LOX IMVI melanoma) was over 100 µM and the TGI (HCT-15 colon) was over 100 µM. For the same molecule, the TGI (TK-10 renal) was over 100 µM, the TGI (DU-145 prostate) was over 100 µM and the TGI (BT-549 breast) was over 100 µM. The TGI (UO-31 renal) was over 100 µM, the TGI (SW-620 colon) was over 100 µM and the TGI (NCI-H226 lung) was over 100 µM. For the same molecule, the TGI (OVCAR-8 ovarian) was over 100 µM, the TGI (U251 CNS) was over 100 µM and the TGI (MDA-MB-435) was over 100 µM. The TGI (M14 melanoma) was over 100 µM, the TGI (UACC-257 melanoma) was over 100 µM and the TGI (OVCAR-4 ovarian) was over 100 µM. The TGI (MOLT-4 leukemia) was over 100 µM, the TGI (OVCAR-3 ovarian) was over 100 µM and the TGI (SK-OV-3 ovarian) was over 100 µM. For the same molecule, the TGI (NCI-H23 lung) was over 100 µM, the TGI (KM12 colon) was over 100 µM and the TGI (SK-MEL-2 melanoma) was over 100 µM. The TGI (IGROV1 ovarian) was over 100 µM, the TGI (SNB-19 CNS) was over 100 µM and the TGI (ACHN renal) was over 100 µM. The TGI (HCT-116 colon) was over 100 µM, the TGI (SK-MEL-28 melanoma) was over 100 µM and the TGI (HCC-2998 colon) was over 100 µM. For the same molecule, the TGI (UACC-62 melanoma) was over 100 µM, the TGI (RPMI-8226 leukemia) was over 100 µM and the TGI (A498 renal) was over 100 µM. For the same molecule, the TGI (HOP-92 NSCLC) was over 100 µM, the TGI (EKVX NSCLC) was over 100 µM and the TGI (T-47D breast) was over 100 µM. It also gave a TGI (MDA-N) of over 100 µM, a TGI (786-0 renal) of over 100 µM and a TGI (COLO 205 colon) of over 100 µM. It also gave a TGI (A549 NSCLC) of over 100 µM, a TGI (SF-539 CNS) of over 100 µM and a TGI (MDA-MB-231 breast) of over 100 µM. It also gave a TGI (SF-268 CNS) of over 100 µM, a TGI (SK-MEL-5 melanoma) of over 100 µM and a TGI (OVCAR-5 ovarian) of over 100 µM. The TGI (CAKI-1 renal) was over 100 µM, the TGI (MALME-3M melanoma) was over 100 µM and the TGI (SN12C renal) was over 100 µM. For the same molecule, the TGI (HL-60(TB) leukemia) was over 100 µM, the TGI (NCI/ADR-RES ovarian) was over 100 µM and the TGI (SF-295 CNS) was over 100 µM. For the same molecule, the TGI (NCI-H460 lung) was over 100 µM, the TGI (HS 578T breast) was over 100 µM and the TGI (HT29 colon) was over 100 µM.
